{"source": "the kinase profiling compilation of Christmann-Franck et al. (2016)", "assay_in_all_cases": "KINOMEscan competition binding", "conditions_in_all_cases": "compound 1.0 µM", "key": {"PIK3CD (human)": {"molecular_target": "PIK3CD (human) (UniProt O00329)", "sequence (O00329 whole entry, looked up)": "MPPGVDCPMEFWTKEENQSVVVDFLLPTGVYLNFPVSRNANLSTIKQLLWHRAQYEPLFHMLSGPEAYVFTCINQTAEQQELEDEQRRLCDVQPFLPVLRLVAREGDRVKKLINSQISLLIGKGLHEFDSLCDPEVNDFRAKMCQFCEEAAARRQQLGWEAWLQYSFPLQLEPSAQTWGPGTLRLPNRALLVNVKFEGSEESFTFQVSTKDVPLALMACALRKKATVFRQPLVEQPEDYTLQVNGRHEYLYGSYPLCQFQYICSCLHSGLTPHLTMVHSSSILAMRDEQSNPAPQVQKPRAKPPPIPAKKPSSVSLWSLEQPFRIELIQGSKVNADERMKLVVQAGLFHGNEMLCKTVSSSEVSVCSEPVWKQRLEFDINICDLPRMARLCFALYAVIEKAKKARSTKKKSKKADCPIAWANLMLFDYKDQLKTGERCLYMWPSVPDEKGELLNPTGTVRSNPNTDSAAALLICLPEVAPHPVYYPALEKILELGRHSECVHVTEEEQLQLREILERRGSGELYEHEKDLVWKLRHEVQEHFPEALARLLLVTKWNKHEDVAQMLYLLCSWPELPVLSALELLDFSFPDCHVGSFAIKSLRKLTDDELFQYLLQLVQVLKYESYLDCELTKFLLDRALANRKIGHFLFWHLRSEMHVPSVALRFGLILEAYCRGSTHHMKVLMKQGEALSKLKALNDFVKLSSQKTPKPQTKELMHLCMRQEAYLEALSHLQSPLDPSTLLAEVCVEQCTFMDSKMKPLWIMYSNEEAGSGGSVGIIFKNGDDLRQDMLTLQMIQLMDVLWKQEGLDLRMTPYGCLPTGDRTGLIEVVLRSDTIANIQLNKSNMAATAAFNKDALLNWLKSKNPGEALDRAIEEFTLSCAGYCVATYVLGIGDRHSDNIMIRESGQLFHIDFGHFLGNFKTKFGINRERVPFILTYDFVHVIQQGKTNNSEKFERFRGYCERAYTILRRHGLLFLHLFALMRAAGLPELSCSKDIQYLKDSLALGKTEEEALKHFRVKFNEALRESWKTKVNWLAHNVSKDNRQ"}, "TIE1 (human)": {"molecular_target": "TIE1 (human) (UniProt P35590)"}, "DYRK2 (human)": {"molecular_target": "DYRK2 (human) (UniProt Q92630)", "sequence (Q92630 whole entry, looked up)": "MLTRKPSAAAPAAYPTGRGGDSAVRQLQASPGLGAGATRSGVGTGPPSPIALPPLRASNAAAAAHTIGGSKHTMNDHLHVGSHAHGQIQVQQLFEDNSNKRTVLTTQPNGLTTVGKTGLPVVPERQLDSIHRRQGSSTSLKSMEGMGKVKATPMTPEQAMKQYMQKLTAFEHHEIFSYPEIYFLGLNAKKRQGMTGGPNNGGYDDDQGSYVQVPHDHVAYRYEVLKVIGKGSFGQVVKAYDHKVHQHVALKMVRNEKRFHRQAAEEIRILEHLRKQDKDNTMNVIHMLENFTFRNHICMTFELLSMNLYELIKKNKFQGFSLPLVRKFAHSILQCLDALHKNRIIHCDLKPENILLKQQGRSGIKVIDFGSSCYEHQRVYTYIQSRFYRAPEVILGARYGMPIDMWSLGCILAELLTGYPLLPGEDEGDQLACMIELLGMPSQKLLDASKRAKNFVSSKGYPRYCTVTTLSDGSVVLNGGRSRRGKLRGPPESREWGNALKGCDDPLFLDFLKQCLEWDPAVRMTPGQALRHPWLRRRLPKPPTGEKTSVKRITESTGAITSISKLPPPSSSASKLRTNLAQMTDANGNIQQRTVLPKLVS"}, "CDKL5 (human)": {"molecular_target": "CDKL5 (human) (UniProt O76039)"}, "SRPK2 (human)": {"molecular_target": "SRPK2 (human) (UniProt P78362)"}, "[1]": {"tested_on": "EGFR (human), P00533 [A750P; 747-749 del]"}, "MAP3K9 (human)": {"molecular_target": "MAP3K9 (human) (UniProt P80192)", "sequence (P80192 whole entry, looked up)": "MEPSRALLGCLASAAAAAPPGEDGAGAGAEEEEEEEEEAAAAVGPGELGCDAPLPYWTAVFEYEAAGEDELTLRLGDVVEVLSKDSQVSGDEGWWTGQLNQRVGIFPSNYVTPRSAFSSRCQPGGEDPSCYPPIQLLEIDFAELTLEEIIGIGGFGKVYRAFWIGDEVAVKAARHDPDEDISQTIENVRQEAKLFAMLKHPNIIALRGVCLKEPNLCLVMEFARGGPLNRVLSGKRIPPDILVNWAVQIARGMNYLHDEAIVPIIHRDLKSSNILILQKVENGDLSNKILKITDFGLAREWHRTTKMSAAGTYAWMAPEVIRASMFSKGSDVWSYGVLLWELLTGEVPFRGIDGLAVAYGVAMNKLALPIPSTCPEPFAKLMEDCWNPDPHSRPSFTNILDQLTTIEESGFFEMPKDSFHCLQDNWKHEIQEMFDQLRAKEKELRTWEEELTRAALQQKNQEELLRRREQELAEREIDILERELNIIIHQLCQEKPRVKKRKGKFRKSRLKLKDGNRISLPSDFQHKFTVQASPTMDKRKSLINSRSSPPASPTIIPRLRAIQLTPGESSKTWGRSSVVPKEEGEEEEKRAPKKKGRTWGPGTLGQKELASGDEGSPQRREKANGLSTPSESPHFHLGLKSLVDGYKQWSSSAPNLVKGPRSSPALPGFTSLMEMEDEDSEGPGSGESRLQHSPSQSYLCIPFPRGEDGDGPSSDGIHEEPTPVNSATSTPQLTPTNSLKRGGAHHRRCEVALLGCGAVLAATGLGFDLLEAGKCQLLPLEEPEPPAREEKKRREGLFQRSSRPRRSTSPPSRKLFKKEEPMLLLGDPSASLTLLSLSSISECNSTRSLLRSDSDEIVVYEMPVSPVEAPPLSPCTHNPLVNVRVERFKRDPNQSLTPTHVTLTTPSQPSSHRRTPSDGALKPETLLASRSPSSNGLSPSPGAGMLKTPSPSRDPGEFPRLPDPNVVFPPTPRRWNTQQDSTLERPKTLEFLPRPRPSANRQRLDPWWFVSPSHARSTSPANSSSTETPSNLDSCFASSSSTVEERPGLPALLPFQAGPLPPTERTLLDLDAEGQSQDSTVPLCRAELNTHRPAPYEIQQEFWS"}, "CAMKK1 (human)": {"molecular_target": "CAMKK1 (human) (UniProt Q8N5S9)"}, "PLK4 (human)": {"molecular_target": "PLK4 (human) (UniProt O00444)"}, "MAP3K5 (human)": {"molecular_target": "MAP3K5 (human) (UniProt Q99683)"}, "ACVR1B (human)": {"molecular_target": "ACVR1B (human) (UniProt P36896)"}, "[2]": {"tested_on": "EGFR (human), P00533 [746-750 del]"}, "CDK11B (human)": {"molecular_target": "CDK11B (human) (UniProt P21127)"}, "TEK (human)": {"molecular_target": "TEK (human) (UniProt Q02763)"}, "LTK (human)": {"molecular_target": "LTK (human) (UniProt P29376)"}, "DDR2 (human)": {"molecular_target": "DDR2 (human) (UniProt Q16832)"}, "EPHA7 (human)": {"molecular_target": "EPHA7 (human) (UniProt Q15375)"}, "BMPR1B (human)": {"molecular_target": "BMPR1B (human) (UniProt O00238)"}, "ROCK2 (human)": {"molecular_target": "ROCK2 (human) (UniProt O75116)"}, "CDK13 (human)": {"molecular_target": "CDK13 (human) (UniProt Q14004)"}, "CDK17 (human)": {"molecular_target": "CDK17 (human) (UniProt Q00537)"}, "MAP3K12 (human)": {"molecular_target": "MAP3K12 (human) (UniProt Q12852)"}, "HCK (human)": {"molecular_target": "HCK (human) (UniProt P08631)"}, "[3]": {"tested_on": "KIT (human), P10721 [A829P]"}, "INSRR (human)": {"molecular_target": "INSRR (human) (UniProt P14616)"}, "TNK1 (human)": {"molecular_target": "TNK1 (human) (UniProt Q13470)"}, "TNK2 (human)": {"molecular_target": "TNK2 (human) (UniProt Q07912)"}, "RPS6KA4 KD1 (human)": {"molecular_target": "RPS6KA4 KD1 (human) (UniProt O75676)", "sequence (O75676 whole entry, looked up)": "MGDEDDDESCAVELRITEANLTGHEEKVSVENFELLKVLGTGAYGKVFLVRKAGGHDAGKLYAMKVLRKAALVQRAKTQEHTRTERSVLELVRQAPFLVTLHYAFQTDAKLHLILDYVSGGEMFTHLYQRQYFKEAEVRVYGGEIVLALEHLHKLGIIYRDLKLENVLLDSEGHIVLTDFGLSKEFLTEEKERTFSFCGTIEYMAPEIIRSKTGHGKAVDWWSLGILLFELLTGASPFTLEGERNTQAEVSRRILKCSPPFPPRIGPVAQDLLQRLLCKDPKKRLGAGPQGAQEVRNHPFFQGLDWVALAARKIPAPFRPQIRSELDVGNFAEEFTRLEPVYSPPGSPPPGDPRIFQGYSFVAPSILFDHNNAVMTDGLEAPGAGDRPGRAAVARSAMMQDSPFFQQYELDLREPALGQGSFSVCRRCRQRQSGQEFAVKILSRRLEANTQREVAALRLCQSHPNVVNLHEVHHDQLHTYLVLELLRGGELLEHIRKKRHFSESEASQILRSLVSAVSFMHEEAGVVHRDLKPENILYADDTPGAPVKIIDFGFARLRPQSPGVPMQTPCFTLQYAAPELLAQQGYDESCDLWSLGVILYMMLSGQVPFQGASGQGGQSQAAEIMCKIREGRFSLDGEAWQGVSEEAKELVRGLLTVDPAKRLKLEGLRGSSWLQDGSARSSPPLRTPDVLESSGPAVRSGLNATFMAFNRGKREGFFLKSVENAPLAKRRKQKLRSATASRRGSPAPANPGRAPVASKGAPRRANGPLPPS"}, "FLT1 (human)": {"molecular_target": "FLT1 (human) (UniProt P17948)"}, "[4]": {"tested_on": "EGFR (human), P00533 [G719S]"}, "PIK3C2B (human)": {"molecular_target": "PIK3C2B (human) (UniProt O00750)"}, "FGFR4 (human)": {"molecular_target": "FGFR4 (human) (UniProt P22455)"}, "PRKACB (human)": {"molecular_target": "PRKACB (human) (UniProt P22694)"}, "ADCK4 (human)": {"molecular_target": "ADCK4 (human) (UniProt Q96D53)"}, "GSG2 (human)": {"molecular_target": "GSG2 (human) (UniProt Q8TF76)"}, "WEE1 (human)": {"molecular_target": "WEE1 (human) (UniProt P30291)"}, "SIK3 (human)": {"molecular_target": "SIK3 (human) (UniProt Q9Y2K2)", "sequence (Q9Y2K2 whole entry, looked up)": "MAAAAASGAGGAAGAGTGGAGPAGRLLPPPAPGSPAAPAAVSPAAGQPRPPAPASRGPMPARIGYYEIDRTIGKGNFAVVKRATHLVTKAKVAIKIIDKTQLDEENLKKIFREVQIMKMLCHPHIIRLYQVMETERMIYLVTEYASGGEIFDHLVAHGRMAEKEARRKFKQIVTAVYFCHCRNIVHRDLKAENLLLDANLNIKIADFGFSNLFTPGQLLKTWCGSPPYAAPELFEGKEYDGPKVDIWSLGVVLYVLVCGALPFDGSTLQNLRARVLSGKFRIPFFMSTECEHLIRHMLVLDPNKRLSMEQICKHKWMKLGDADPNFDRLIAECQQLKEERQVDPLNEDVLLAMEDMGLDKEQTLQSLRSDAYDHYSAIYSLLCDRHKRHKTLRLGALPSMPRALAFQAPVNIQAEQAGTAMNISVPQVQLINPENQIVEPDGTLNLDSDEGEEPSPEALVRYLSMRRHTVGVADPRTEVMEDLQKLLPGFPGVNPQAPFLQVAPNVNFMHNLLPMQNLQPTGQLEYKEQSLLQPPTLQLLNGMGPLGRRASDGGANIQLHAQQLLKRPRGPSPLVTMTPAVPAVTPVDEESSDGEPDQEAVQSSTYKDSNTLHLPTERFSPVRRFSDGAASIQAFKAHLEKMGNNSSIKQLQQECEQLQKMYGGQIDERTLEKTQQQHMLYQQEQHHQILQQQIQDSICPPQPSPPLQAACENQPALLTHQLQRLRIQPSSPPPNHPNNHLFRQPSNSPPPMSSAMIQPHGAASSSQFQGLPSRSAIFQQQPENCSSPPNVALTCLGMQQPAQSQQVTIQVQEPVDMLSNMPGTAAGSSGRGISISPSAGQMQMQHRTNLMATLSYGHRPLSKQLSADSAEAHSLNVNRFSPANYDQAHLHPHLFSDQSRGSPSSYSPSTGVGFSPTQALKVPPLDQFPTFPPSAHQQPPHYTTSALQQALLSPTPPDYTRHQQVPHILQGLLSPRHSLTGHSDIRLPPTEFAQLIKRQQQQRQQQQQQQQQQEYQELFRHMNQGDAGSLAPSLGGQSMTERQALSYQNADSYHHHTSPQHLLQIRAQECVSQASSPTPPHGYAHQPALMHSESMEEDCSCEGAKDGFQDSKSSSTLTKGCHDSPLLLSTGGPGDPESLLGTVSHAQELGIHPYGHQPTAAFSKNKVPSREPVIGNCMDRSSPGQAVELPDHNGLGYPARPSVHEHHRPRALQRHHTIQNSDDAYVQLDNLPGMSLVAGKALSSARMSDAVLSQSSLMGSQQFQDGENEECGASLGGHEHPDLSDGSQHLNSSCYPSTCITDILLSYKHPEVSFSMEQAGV"}, "DAPK2 (human)": {"molecular_target": "DAPK2 (human) (UniProt Q9UIK4)"}, "AAK1 (human)": {"molecular_target": "AAK1 (human) (UniProt Q2M2I8)"}}, "data": [{"smiles": "CNc1nc(Nc2ccc(C(=O)N3CCOCC3)cc2OC)ncc1Cl", "values": [{"measurement": "kinase still bound, per cent of control", "setting": "PIK3CD (human)", "result": 69, "unit": "%"}, {"measurement": "kinase still bound, per cent of control", "setting": "TIE1 (human)", "result": 100, "unit": "%"}, {"measurement": "kinase still bound, per cent of control", "setting": "DYRK2 (human)", "result": 91, "unit": "%"}, {"measurement": "residual activity", "setting": "CDKL5 (human)", "result": 94, "unit": "%"}, {"measurement": "kinase still bound, per cent of control", "setting": "SRPK2 (human)", "result": 84, "unit": "%"}, {"measurement": "kinase still bound, per cent of control", "setting": "[1]", "result": 100, "unit": "%"}, {"measurement": "kinase still bound, per cent of control", "setting": "MAP3K9 (human)", "result": 100, "unit": "%"}, {"measurement": "kinase still bound, per cent of control", "setting": "CAMKK1 (human)", "result": 79, "unit": "%"}, {"measurement": "kinase still bound, per cent of control", "setting": "PLK4 (human)", "result": 62, "unit": "%"}, {"measurement": "kinase still bound, per cent of control", "setting": "MAP3K5 (human)", "result": 100, "unit": "%"}, {"measurement": "kinase still bound, per cent of control", "setting": "ACVR1B (human)", "result": 100, "unit": "%"}, {"measurement": "kinase still bound, per cent of control", "setting": "[2]", "result": 88, "unit": "%"}, {"measurement": "residual activity", "setting": "CDK11B (human)", "result": 100, "unit": "%"}, {"measurement": "kinase still bound, per cent of control", "setting": "TEK (human)", "result": 100, "unit": "%"}, {"measurement": "kinase still bound, per cent of control", "setting": "LTK (human)", "result": 50, "unit": "%"}, {"measurement": "kinase still bound, per cent of control", "setting": "DDR2 (human)", "result": 100, "unit": "%"}, {"measurement": "kinase still bound, per cent of control", "setting": "EPHA7 (human)", "result": 100, "unit": "%"}, {"measurement": "kinase still bound, per cent of control", "setting": "BMPR1B (human)", "result": 100, "unit": "%"}, {"measurement": "kinase still bound, per cent of control", "setting": "ROCK2 (human)", "result": 100, "unit": "%"}, {"measurement": "residual activity", "setting": "CDK13 (human)", "result": 89, "unit": "%"}, {"measurement": "residual activity", "setting": "CDK17 (human)", "result": 97, "unit": "%"}, {"measurement": "residual activity", "setting": "MAP3K12 (human)", "result": 100, "unit": "%"}, {"measurement": "kinase still bound, per cent of control", "setting": "HCK (human)", "result": 100, "unit": "%"}, {"measurement": "kinase still bound, per cent of control", "setting": "[3]", "result": 93, "unit": "%"}, {"measurement": "kinase still bound, per cent of control", "setting": "INSRR (human)", "result": 90, "unit": "%"}, {"measurement": "kinase still bound, per cent of control", "setting": "TNK1 (human)", "result": 66, "unit": "%"}, {"measurement": "kinase still bound, per cent of control", "setting": "TNK2 (human)", "result": 78, "unit": "%"}, {"measurement": "kinase still bound, per cent of control", "setting": "RPS6KA4 KD1 (human)", "result": 89, "unit": "%"}, {"measurement": "kinase still bound, per cent of control", "setting": "FLT1 (human)", "result": 100, "unit": "%"}, {"measurement": "kinase still bound, per cent of control", "setting": "[4]", "result": 100, "unit": "%"}, {"measurement": "kinase still bound, per cent of control", "setting": "PIK3C2B (human)", "result": 96, "unit": "%"}, {"measurement": "kinase still bound, per cent of control", "setting": "FGFR4 (human)", "result": 52, "unit": "%"}, {"measurement": "residual activity", "setting": "PRKACB (human)", "result": 84, "unit": "%"}, {"measurement": "kinase still bound, per cent of control", "setting": "ADCK4 (human)", "result": 100, "unit": "%"}, {"measurement": "kinase still bound, per cent of control", "setting": "GSG2 (human)", "result": 74, "unit": "%"}, {"measurement": "kinase still bound, per cent of control", "setting": "WEE1 (human)", "result": 78, "unit": "%"}, {"measurement": "kinase still bound, per cent of control", "setting": "SIK3 (human)", "result": 100, "unit": "%"}, {"measurement": "kinase still bound, per cent of control", "setting": "DAPK2 (human)", "result": 66, "unit": "%"}, {"measurement": "kinase still bound, per cent of control", "setting": "AAK1 (human)", "result": 38, "unit": "%"}]}]}
